This assay has as its target hQC (Homo sapiens, UniProt Q16769). As to the kind of experiment: Inhibitor assay for glutaminyl cyclase activity (fluorometric, H-Gln-βNA / H-Gln-AMC). Format: biochemical. The procedure, abridged: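 Ki values came from fitting progress curves to a competitive inhibition model; rapid screens used 4 mM inhibitor with substrate at KM. QC activity was read at 30 °C via auxiliary pyroglutamyl aminopeptidase releasing βNA (0.2 mM H-Gln-βNA, 0.2 M Tris pH 8.0, 20 mM EDTA) or AMC (0.05 M Tris pH 8.0, 5 mM EDTA).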

Molecules are shown by their SMILES. Where two headings read alike, the source gives them in different places.

Chain of hQC (Q16769 29-361): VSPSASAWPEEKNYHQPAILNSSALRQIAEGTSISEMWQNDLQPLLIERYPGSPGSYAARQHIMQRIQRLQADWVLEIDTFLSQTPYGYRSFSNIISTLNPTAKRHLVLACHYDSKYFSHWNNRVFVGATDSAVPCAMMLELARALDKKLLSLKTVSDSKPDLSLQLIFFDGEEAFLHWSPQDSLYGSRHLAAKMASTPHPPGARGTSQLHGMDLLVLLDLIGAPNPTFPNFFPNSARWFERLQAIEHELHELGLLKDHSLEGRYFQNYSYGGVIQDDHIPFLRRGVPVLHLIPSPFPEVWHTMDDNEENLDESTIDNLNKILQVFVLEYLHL

As for `O=C(O)c1ccc(C2C(c3ccc(O)cc3)=C(O)C(=O)N2c2ccc3[nH]cnc3c2)o1` (stereo not shown) [Compound 389, 5-[1-(1H-Benzoimidazol-5-yl)-4-hydroxy-3-(4-hydroxy-phenyl)-5-oxo-2,5-dihydro-1H-pyrrol-2-yl]-furan-2-carboxylic acid], the concentration for half-maximal inhibition (IC50) (as a rule, the concentration that gives 50% inhibition) (read-out: IC50) worked out at 220 nM.

As for `O=C1C(O)=C(c2c[nH]c3ccccc23)C(c2ccc3nonc3c2)N1c1ccc2[nH]cnc2c1` (stereo not shown) [Compound 390, 1-(1H-Benzoimidazol-5-yl)-5-(benzo[c][1,2,5]oxadiazol-5-yl)-3-hydroxy-4-(1H-indol-3-yl)-1,5-dihydro-pyrrol-2-one], the IC50 (read-out: IC50) stood at 40 nM.

Regarding `O=C1C(O)=C(c2ccc(O)cc2)C(c2ccc3cccc(O)c3n2)N1c1ccc2[nH]cnc2c1` (stereo not shown) [Compound 391, 1-(1H-Benzoimidazol-5-yl)-3-hydroxy-4-(4-hydroxy-phenyl)-5-(8-hydroxy-quinolin-2-yl)-1,5-dihydro-pyrrol-2-one], the IC50 (read-out: IC50) came to 40 nM.

With `CC(C)(C)C(=O)C1=C(O)C(=O)N(c2ccc3[nH]cnc3c2)C1c1cc2ccccc2nc1Cl` (stereo not shown) [Compound 392, 1-(1H-Benzoimidazol-5-yl)-5-(2-chloro-quinolin-3-yl)-4-(2,2-dimethyl-propionyl)-3-hydroxy-1,5-dihydro-pyrrol-2-one], for the setting “read-out: IC50”, the IC50 came out at 4450 nM.

As for `CC1=C(O)C(=O)N(c2ccc3[nH]cnc3c2)C1c1c(F)c(F)cc(F)c1F` (stereo not shown) [Compound 393, 1-(1H-Benzoimidazol-5-yl)-3-hydroxy-4-methyl-5-(2,3,5,6-tetrafluoro-phenyl)-1,5-dihydro-pyrrol-2-one], where the note is “read-out: IC50”, the half-inhibitory concentration (IC50) is 4090 nM.

Consider `CC1=C(O)C(=O)N(c2ccc3[nH]cnc3c2)C1c1cc(C)c(C)o1` (stereo not shown) [Compound 394, 1-(1H-Benzoimidazol-5-yl)-5-(4,5-dimethyl-furan-2-yl)-3-hydroxy-4-methyl-1,5-dihydro-pyrrol-2-one], for which the IC50 (read-out: IC50) came out at 9220 nM.

In the case of `Cc1cc(C2C(c3ccccc3)=C(O)C(=O)N2c2ccc3[nH]cnc3c2)oc1C` (stereo not shown) [Compound 395, 1-(1H-Benzoimidazol-5-yl)-5-(4,5-dimethyl-furan-2-yl)-3-hydroxy-4-phenyl-1,5-dihydro-pyrrol-2-one], the IC50 (read-out: IC50) stood at 1390 nM.

Consider `CC(C)(C)C(=O)C1=C(O)C(=O)N(c2ccc3[nH]cnc3c2)C1c1cc(Br)ccc1F` (stereo not shown) [Compound 396, 1-(1H-Benzoimidazol-5-yl)-5-(5-bromo-2-fluoro-phenyl)-4-(2,2-dimethyl-propionyl)-3-hydroxy-1,5-dihydro-pyrrol-2-one], for which, for the setting “read-out: IC50”, the IC50 was determined as 4450 nM.

Regarding `CC(=O)C1=C(O)C(=O)N(c2ccc3[nH]cnc3c2)C1c1cc[n+]([O-])cc1` (stereo not shown) [Compound 397, 4-Acetyl-1-(1H-benzoimidazol-5-yl)-3-hydroxy-5-(1-oxy-pyridin-4-yl)-1,5-dihydro-pyrrol-2-one], where the note is “read-out: IC50”, the IC50 is 1210 nM.

With `O=C1C(O)=C(c2ccccc2)C(c2ccc3cccc(O)c3n2)N1c1ccc2[nH]cnc2c1` (stereo not shown) [Compound 398, 1-(1H-Benzoimidazol-5-yl)-3-hydroxy-5-(8-hydroxy-quinolin-2-yl)-4-phenyl-1,5-dihydro-pyrrol-2-one], the IC50 (read-out: IC50) turned out to be 40 nM.

Consider `CC1=C(O)C(=O)N(c2ccc3[nH]cnc3c2)C1c1ccc(C(=O)O)o1` (stereo not shown) [Compound 399, 5-[1-(1H-Benzoimidazol-5-yl)-4-hydroxy-3-methyl-5-oxo-2,5-dihydro-1H-pyrrol-2-yl]-furan-2-carboxylic acid], for which the 50% inhibitory concentration (IC50) (read-out: IC50) is 1390 nM.

As to `CCC1=C(O)C(=O)N(c2ccc3[nH]cnc3c2)C1c1c(F)c(F)cc(F)c1F` (stereo not shown) [Compound 400, 1-(1H-Benzoimidazol-5-yl)-4-ethyl-3-hydroxy-5-(2,3,5,6-tetrafluoro-phenyl)-1,5-dihydro-pyrrol-2-one], for the setting “read-out: IC50”, the IC50 was 6970 nM.

As to `CC(C)(C)C(=O)C1=C(O)C(=O)N(c2ccc3[nH]cnc3c2)C1c1ccc(-c2ccccn2)cc1` (stereo not shown) [Compound 401, 1-(1H-Benzoimidazol-5-yl)-4-(2,2-dimethyl-propionyl)-3-hydroxy-5-(4-pyridin-2-yl-phenyl)-1,5-dihydro-pyrrol-2-one], the half-maximal inhibitory concentration (IC50) (read-out: IC50) was determined as 3010 nM.

For `CC(C)(C)C(=O)C1=C(O)C(=O)N(c2ccc3[nH]cnc3c2)C1c1nccs1` (stereo not shown) [Compound 402, 1-(1H-Benzoimidazol-5-yl)-4-(2,2-dimethyl-propionyl)-3-hydroxy-5-thiazol-2-yl-1,5-dihydro-pyrrol-2-one], the IC50 (read-out: IC50) is 6340 nM.

Take `CCCC(=O)C1=C(O)C(=O)N(c2ccc3[nH]cnc3c2)C1c1ccnc2ccccc12` (stereo not shown) [Compound 404, 1-(1H-Benzoimidazol-5-yl)-4-butyryl-3-hydroxy-5-quinolin-4-yl-1,5-dihydro-pyrrol-2-one]: where the note is “read-out: IC50”, the IC50 amounted to 1570 nM.

Turning to `CC(C)(C)C(=O)C1=C(O)C(=O)N(c2ccc3[nH]cnc3c2)C1c1cc[nH]n1` (stereo not shown) [Compound 405, 1-(1H-Benzoimidazol-5-yl)-4-(2,2-dimethyl-propionyl)-3-hydroxy-5-(1H-pyrazol-3-yl)-1,5-dihydro-pyrrol-2-one], the IC50 (read-out: IC50) amounted to 2200 nM.

With `CCC1=C(O)C(=O)N(c2ccc3[nH]cnc3c2)C1c1ccc(N2CCCC2)cc1` (stereo not shown) [Compound 406, 1-(1H-Benzoimidazol-5-yl)-4-ethyl-3-hydroxy-5-(4-pyrrolidin-1-yl-phenyl)-1,5-dihydro-pyrrol-2-one], under “read-out: IC50”, the IC50 worked out at 8320 nM.

In the case of `CC1=C(O)C(=O)N(c2ccc3[nH]cnc3c2)C1c1cc(F)cc(F)c1F` (stereo not shown) [Compound 407, 1-(1H-Benzoimidazol-5-yl)-3-hydroxy-4-methyl-5-(2,3,5-trifluoro-phenyl)-1,5-dihydro-pyrrol-2-one], the half-maximal inhibitory concentration (IC50) (read-out: IC50) came to 220 nM.

On to `O=C(O)CC1=C(O)C(=O)N(c2ccc3[nH]cnc3c2)C1c1csc2ccccc12` (stereo not shown) [Compound 408, [2-Benzo[b]thiophen-3-yl-1-(1H-benzoimidazol-5-yl)-4-hydroxy-5-oxo-2,5-dihydro-1H-pyrrol-3-yl]-acetic acid], for which the concentration for half-maximal inhibition (IC50) (read-out: IC50) turned out to be 6430 nM.

Regarding `O=C1C(O)=C(c2c[nH]c3ccccc23)C(c2ccc(CO)o2)N1c1ccc2[nH]cnc2c1` (stereo not shown) [Compound 409, 1-(1H-Benzoimidazol-5-yl)-3-hydroxy-5-(5-hydroxymethyl-furan-2-yl)-4-(1H-indol-3-yl)-1,5-dihydro-pyrrol-2-one], the half-maximal inhibitory concentration (IC50) (read-out: IC50) is 670 nM.

In the case of `CC(=O)C1=C(O)C(=O)N(c2ccc3[nH]cnc3c2)C1c1ccc(C(=O)O)o1` (stereo not shown) [Compound 410, 5-[3-Acetyl-1-(1H-benzoimidazol-5-yl)-4-hydroxy-5-oxo-2,5-dihydro-1H-pyrrol-2-yl]-furan-2-carboxylic acid], where the note is “read-out: IC50”, the IC50 turned out to be 1030 nM.

As to `CCCCCC(=O)C1=C(O)C(=O)N(c2ccc3[nH]cnc3c2)C1c1cccc(C)c1` (stereo not shown) [Compound 411, 1-(1H-Benzoimidazol-5-yl)-4-hexanoyl-3-hydroxy-5-m-tolyl-1,5-dihydro-pyrrol-2-one], the IC50 (read-out: IC50) is 1390 nM.

For `CC1=C(O)C(=O)N(c2ccc3[nH]cnc3c2)C1c1c(F)ccc(Cl)c1F` (stereo not shown) [Compound 412, 1-(1H-Benzoimidazol-5-yl)-5-(3-chloro-2,6-difluoro-phenyl)-3-hydroxy-4-methyl-1,5-dihydro-pyrrol-2-one], the concentration for half-maximal inhibition (IC50) (read-out: IC50) is 4180 nM.

`CC(C)CC(=O)C1=C(O)C(=O)N(c2ccc3[nH]cnc3c2)C1c1ccco1` (stereo not shown) [Compound 413, 1-(1H-Benzoimidazol-5-yl)-5-furan-2-yl-3-hydroxy-4-(3-methyl-butyryl)-1,5-dihydro-pyrrol-2-one]: the IC50 (read-out: IC50) was found to be 1480 nM.

For the compound `CC(=O)C1=C(O)C(=O)N(c2ccc3[nH]cnc3c2)C1c1cc(Br)c(O)c(Br)c1` (stereo not shown) [Compound 414, 4-Acetyl-1-(1H-benzoimidazol-5-yl)-5-(3,5-dibromo-4-hydroxy-phenyl)-3-hydroxy-1,5-dihydro-pyrrol-2-one], the IC50 (read-out: IC50) turned out to be 2380 nM.

Consider `CC(=O)C1=C(O)C(=O)N(c2ccc3[nH]cnc3c2)C1c1ccc(C)o1` (stereo not shown) [Compound 415, 4-Acetyl-1-(1H-benzoimidazol-5-yl)-3-hydroxy-5-(5-methyl-furan-2-yl)-1,5-dihydro-pyrrol-2-one], for which the IC50 (read-out: IC50) is 1390 nM.

For `CC1=C(O)C(=O)N(c2ccc3[nH]cnc3c2)C1c1cccc(C)c1` (stereo not shown) [Compound 416, 1-(1H-Benzoimidazol-5-yl)-3-hydroxy-4-methyl-5-m-tolyl-1,5-dihydro-pyrrol-2-one], the half-inhibitory concentration (IC50) (read-out: IC50) was 9940 nM.

As to `CC1=C(O)C(=O)N(c2ccc3[nH]cnc3c2)C1c1cc(C)ccc1C` (stereo not shown) [Compound 417, 1-(1H-Benzoimidazol-5-yl)-5-(2,5-dimethyl-phenyl)-3-hydroxy-4-methyl-1,5-dihydro-pyrrol-2-one], under “read-out: IC50”, the IC50 is 9130 nM.

With `O=C(C1=C(O)C(=O)N(c2ccc3[nH]cnc3c2)C1c1ccc(CO)o1)C1CC1` (stereo not shown) [Compound 418, 1-(1H-Benzoimidazol-5-yl)-4-cyclopropanecarbonyl-3-hydroxy-5-(5-hydroxymethyl-furan-2-yl)-1,5-dihydro-pyrrol-2-one], the half-inhibitory concentration (IC50) (read-out: IC50) was 310 nM.

As to `CC(C)(C)C(=O)C1=C(O)C(=O)N(c2ccc3[nH]cnc3c2)C1c1ccco1` (stereo not shown) [Compound 419, 1-(1H-Benzoimidazol-5-yl)-4-(2,2-dimethyl-propionyl)-5-furan-2-yl-3-hydroxy-1,5-dihydro-pyrrol-2-one], the IC50 (read-out: IC50) worked out at 4090 nM.

`O=C1C(O)=C(c2c[nH]c3ccccc23)C(c2cnc3ccccc3c2)N1c1ccc2[nH]cnc2c1` (stereo not shown) [Compound 422, 1-(1H-Benzoimidazol-5-yl)-3-hydroxy-4-(1H-indol-3-yl)-5-quinolin-3-yl-1,5-dihydro-pyrrol-2-one]: the IC50 came to 575 nM (compound from preparative synthesis, purified, read-out: IC50 hQC) and 4 nM (read-out: IC50).

As for `CC(C)CC(=O)C1=C(O)C(=O)N(c2ccc3[nH]cnc3c2)C1c1c(F)c(F)cc(F)c1F` (stereo not shown) [Compound 423, 1-(1H-Benzoimidazol-5-yl)-3-hydroxy-4-(3-methyl-butyryl)-5-(2,3,5,6-tetrafluoro-phenyl)-1,5-dihydro-pyrrol-2-one], the IC50 (read-out: IC50) is 40 nM.

For `CCCC(=O)C1=C(O)C(=O)N(c2ccc3[nH]cnc3c2)C1c1ccsc1` (stereo not shown) [Compound 424, 1-(1H-Benzoimidazol-5-yl)-4-butyryl-3-hydroxy-5-thiophen-3-yl-1,5-dihydro-pyrrol-2-one], the half-inhibitory concentration (IC50) (read-out: IC50) worked out at 850 nM.

Source of the values: patent publication US8278345B2, “Inhibitors of glutaminyl cyclase” (Probiodrug AG, priority 2006, dated 2012).
